Test results as given in patent US8946215B2, “Hydroxy-substituted imidazo[1,2-a]pyridinecarboxamides and their use” (Bayer Pharma Aktiengesellschaft, priority 2012, dated 2015).
Counter-ions that a name gives are not always drawn.

These compounds were tested against T1, recombinant guanylate cyclase reporter cell line (Rattus norvegicus, UniProt P19686+P20595) (assay: Action on recombinant guanylate cyclase reporter cell line). Settings: in some cases mean values obtained from individual determinations.
T1 construct: expressed in transfected cells
T1 sequence (P20595 1-619): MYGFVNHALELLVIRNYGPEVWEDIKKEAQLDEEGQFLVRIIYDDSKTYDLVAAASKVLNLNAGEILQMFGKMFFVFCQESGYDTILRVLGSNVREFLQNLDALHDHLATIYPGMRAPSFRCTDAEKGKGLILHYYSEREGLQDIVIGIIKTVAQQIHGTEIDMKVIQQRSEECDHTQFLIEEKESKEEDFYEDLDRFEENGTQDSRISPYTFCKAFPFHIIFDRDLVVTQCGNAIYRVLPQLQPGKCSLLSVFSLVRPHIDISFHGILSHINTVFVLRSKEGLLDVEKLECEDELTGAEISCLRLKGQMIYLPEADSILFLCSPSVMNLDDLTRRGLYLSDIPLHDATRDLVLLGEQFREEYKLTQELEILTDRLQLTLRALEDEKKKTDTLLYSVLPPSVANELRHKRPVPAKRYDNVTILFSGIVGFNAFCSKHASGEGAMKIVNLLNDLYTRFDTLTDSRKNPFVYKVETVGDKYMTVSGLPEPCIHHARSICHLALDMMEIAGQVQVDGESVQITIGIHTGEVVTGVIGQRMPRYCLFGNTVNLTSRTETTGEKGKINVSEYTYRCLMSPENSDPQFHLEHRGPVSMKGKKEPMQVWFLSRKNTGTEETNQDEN
T1 sequence (P19686 1-690): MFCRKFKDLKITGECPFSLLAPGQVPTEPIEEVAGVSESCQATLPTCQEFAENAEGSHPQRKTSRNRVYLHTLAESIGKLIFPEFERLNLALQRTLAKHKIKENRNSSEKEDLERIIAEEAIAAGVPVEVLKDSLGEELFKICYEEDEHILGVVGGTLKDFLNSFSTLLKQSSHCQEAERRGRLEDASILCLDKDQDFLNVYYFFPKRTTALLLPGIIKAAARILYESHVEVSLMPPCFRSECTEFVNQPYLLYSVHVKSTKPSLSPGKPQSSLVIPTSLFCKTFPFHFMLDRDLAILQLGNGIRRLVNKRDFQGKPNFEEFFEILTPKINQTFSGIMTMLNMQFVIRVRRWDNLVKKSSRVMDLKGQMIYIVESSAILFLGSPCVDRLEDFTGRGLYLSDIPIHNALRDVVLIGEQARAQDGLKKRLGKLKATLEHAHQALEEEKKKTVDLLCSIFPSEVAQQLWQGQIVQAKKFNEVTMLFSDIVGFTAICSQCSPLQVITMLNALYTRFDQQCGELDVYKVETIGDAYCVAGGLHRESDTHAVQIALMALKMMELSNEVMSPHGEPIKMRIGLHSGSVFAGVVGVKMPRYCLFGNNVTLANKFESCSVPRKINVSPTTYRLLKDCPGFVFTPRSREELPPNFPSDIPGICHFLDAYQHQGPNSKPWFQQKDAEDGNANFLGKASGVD
Format: cell-based
Outline: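 Cell-based reporter assay with recombinant guanylate cyclase expressed in a reporter cell line, per a published method. Activity reported as minimal effective concentration (MEC), in some cases as the mean of individual determinations.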

Structure (SMILES)	MEC (minimal effective concentration)
CSCC[C@@H](CO)NC(=O)c1c(C)nc2c(OCC3CCCCC3)cccn12 [Example 90, 8-(cyclohexylmethoxy)-N-[(2S)-1-hydroxy-4-(methylsulphanyl)butan-2-yl]-2-methylimidazo[1,2-a]pyridine-3-carboxamide]	1.0 µM
CC[C@H](C)[C@@H](CO)NC(=O)c1c(C)nc2c(OCC3CCCCC3)cccn12 [Example 91, 8-(cyclohexylmethoxy)-N-[(2S,3S)-1-hydroxy-3-methylpentan-2-yl]-2-methylimidazo[1,2-a]pyridine-3-carboxamide]	1.0 µM
Cc1nc2c(OCC3CCCCC3)cccn2c1C(=O)NC1(CO)CCCC1 [Example 92, 8-(cyclohexylmethoxy)-N-[1-(hydroxymethyl)cyclopentyl]-2-methylimidazo[1,2-a]pyridine-3-carboxamide]	1.0 µM
Cc1nc2c(OCC3CCCCC3)cccn2c1C(=O)N[C@H](CO)C(C)C [Example 93, 8-(cyclohexylmethoxy)-N-[(2S)-1-hydroxy-3-methylbutan-2-yl]-2-methylimidazo[1,2-a]pyridine-3-carboxamide]	1.0 µM
Cc1nc2c(OCC3CCCCC3)cccn2c1C(=O)NC(CO)COC(C)(C)C (centres unmarked) [Example 94, N-(1-tert-butoxy-3-hydroxypropan-2-yl)-8-(cyclohexylmethoxy)-2-methylimidazo[1,2-a]-pyridine-3-carboxamide]	3.0 µM
Cc1nc2c(OCC3CCCCC3)cccn2c1C(=O)N[C@H](CO)CC(C)C [Example 95, 8-(cyclohexylmethoxy)-N-[(2S)-1-hydroxy-4-methylpentan-2-yl]-2-methylimidazo[1,2-a]pyridine-3-carboxamide]	3.0 µM
CCC(C)[C@H](CO)NC(=O)c1c(C)nc2c(OCC3CCCCC3)cccn12 (stereo partly drawn) [Example 96, 8-(cyclohexylmethoxy)-N-[(2R)-1-hydroxy-3-methylpentan-2-yl]-2-methylimidazo[1,2-a]pyridine-3-carboxamide]	3.0 µM
Cc1nc2c(OCC3CCC3)cccn2c1C(=O)NCCC1(O)CCCC1 [Example 97, 8-(cyclobutylmethoxy)-N-[2-(1-hydroxycyclopentyl)ethyl]-2-methylimidazo[1,2-a]pyridine-3-carboxamide]	1.0 µM
Cc1nc2c(OCC3CCC3)cccn2c1C(=O)NCCOCCO [Example 98, 8-(cyclobutylmethoxy)-N-[2-(2-hydroxyethoxy)ethyl]-2-methylimidazo[1,2-a]pyridine-3-carboxamide]	3.0 µM
Cc1nc2c(OCC3CCC3)cccn2c1C(=O)NCCC1(O)CCCCC1 [Example 99, 8-(cyclobutylmethoxy)-N-[2-(1-hydroxycyclohexyl)ethyl]-2-methylimidazo[1,2-a]pyridine-3-carboxamide]	3.0 µM
[2H]C([2H])(Oc1cccn2c(C(=O)N[C@@H](CO)CCCC)c(C)nc12)c1c(F)cccc1F [Example 115, 8-{[(2,6-difluorophenyl)(^2H2)methyl]oxy}-N-[(2R)-1-hydroxyhexan-2-yl]-2-methylimidazo[1,2-a]pyridine-3-carboxamide]	0.01 µM
Cc1nc2c(OCc3c(F)cccc3F)cccn2c1C(=O)NCCC1(O)CCCCC1 [Example 116, 8-[(2,6-difluorobenzyl)oxy]-N-[2-(1-hydroxycyclohexyl)ethyl]-2-methylimidazo[1,2-a]pyridine-3-carboxamide]	0.3 µM
Cc1nc2c(OCc3c(F)cccc3F)cccn2c1C(=O)NCCC1(O)CCCC1 [Example 117, 8-[(2,6-difluorobenzyl)oxy]-N-[2-(1-hydroxycyclopentyl)ethyl]-2-methylimidazo[1,2-a]pyridine-3-carboxamide]	0.03 µM
Cc1nc2c(OCc3c(F)cccc3F)cccn2c1C(=O)N[C@H](C)CO [Example 118, 8-[(2,6-difluorobenzyl)oxy]-N-[(2R)-1-hydroxypropan-2-yl]-2-methylimidazo[1,2-a]-pyridine-3-carboxamide]	0.3 µM

Further lines, results first:

MEC (minimal effective concentration)	Structure (SMILES)
0.3 µM	Cc1nc2c(OCc3c(F)cccc3F)cccn2c1C(=O)NC1(CO)CCC1 [Example 125, 8-[(2,6-Difluorobenzyl)oxy]-N-[1-(hydroxymethyl)cyclobutyl]-2-methylimidazo[1,2-a]pyridine-3-carboxamide]
0.1 µM	C#Cc1cc(OCc2c(F)cccc2F)c2nc(C)c(C(=O)N[C@@H](CO)CCCC)n2c1 [Example 126, 8-[(2,6-Difluorobenzyl)oxy]-6-ethynyl-N-[(2R)-hydroxyhexan-2-yl]-2-methylimidazo[1,2-a]-pyridine-3-carboxamide]
0.3 µM	Cc1nc2c(OCc3c(F)cccc3F)cc(Cl)cn2c1C(=O)N[C@@H](CO)CCCO [Example 127, 6-Chloro-8-[(2,6-difluorobenzyl)oxy]-N-[(2R)-1,5-dihydroxypentan-2-yl]-2-methylimidazo[1,2-a]-pyridine-3-carboxamide]
0.3 µM	Cc1nc2c(OCc3c(F)cccc3F)cc(Cl)cn2c1C(=O)N[C@@H](CO)CCO [Example 128, 6-chloro-8-[(2,6-difluorobenzyl)oxy]-N-[(2R)-1,4-dihydroxybutan-2-yl]-2-methylimidazo[1,2-a]pyridine-3-carboxamide]
3.0 µM	Cc1nc2c(OCc3c(F)cccc3F)cccn2c1C(=O)N[C@@H](CO)CCO [Example 129, 8-[(2,6-difluorobenzyl)oxy]-N-[(2R)-1,4-dihydroxybutan-2-yl]-2-methylimidazo[1,2-a]pyridine-3-carboxamide]
1.0 µM	Cc1nc2c(OCc3c(F)cccc3F)cccn2c1C(=O)N[C@@H](CO)CCCO [Example 130, 8-[(2,6-difluorobenzyl)oxy]-N-[(2R)-1,5-dihydroxypentan-2-yl]-2-methylimidazo[1,2-a]pyridine-3-carboxamide]
0.01 µM	CCCC[C@H](CO)NC(=O)c1c(C)nc2c(OCc3c(F)cccc3F)cc(Cl)cn12 [Example 131, 6-chloro-8-[(2,6-difluorobenzyl)oxy]-N-[(2R)-1-hydroxyhexan-2-yl]-2-methylimidazo[1,2-a]pyridine-3-carboxamide]
0.03 µM	CCCC[C@H](CO)NC(=O)c1c(C)nc2c(OCc3c(F)cccc3F)cc(F)cn12 [Example 132, 8-[(2,6-difluorobenzyl)oxy]-6-fluoro-N-[(2R)-1-hydroxyhexan-2-yl]-2-methylimidazo[1,2-a]pyridine-3-carboxamide]
0.01 µM	CCCC[C@H](CO)NC(=O)c1c(C)nc2c(OCc3c(F)cccc3F)cc(C)cn12 [Example 133, 8-[(2,6-difluorobenzyl)oxy]-N-[(2R)-1-hydroxyhexan-2-yl]-2,6-dimethylimidazo[1,2-a]pyridine-3-carboxamide]
0.1 µM	Cc1nc2c(OCc3c(F)cccc3F)cccn2c1C(=O)N[C@@H](CO)CC[C@@H](O)C(F)(F)F [Example 135, 8-[(2,6-difluorobenzyl)oxy]-2-methyl-N-[(2R,5R)-6,6,6-trifluoro-1,5-dihydroxyhexan-2-yl]imidazo[1,2-a]pyridine-3-carboxamide trifluoroacetate (1:1)]
3.0 µM	Cc1nc2c(OCc3c(F)cccc3F)cccn2c1C(=O)NCC(O)COc1ccc(F)cc1 (centres unmarked) [Example 136, 8-[(2,6-difluorobenzyl)oxy]-N-[3-(4-fluorophenoxy)-2-hydroxypropyl]-2-methylimidazo[1,2-a]pyridine-3-carboxamide]
3.0 µM	Cc1nc2c(OCc3c(F)cccc3F)cccn2c1C(=O)NCC(O)COc1ccccc1 (centres unmarked) [Example 137, 8-[(2,6-difluorobenzyl)oxy]-N-(2-hydroxy-3-phenoxypropyl)-2-methylimidazo[1,2-a]-pyridine-3-carboxamide]
